Data set [1] deals with rejection of skin graft. The conditions noted are these: dogs; cited from earlier work.
Data set [2] has as its system T-cells. The data set is described as follows: HTBA-1 T-cell cytotoxicity in the presence of 2'-deoxyguanosine. It is filed as cell-based.
Data set [3] has as its system B-cell. The data set is described as follows: HTBA-1 B-cell toxicity in the presence of 2'-deoxyguanosine. The format is cell-based. The conditions noted are these: in the presence of the same amount of 2'-deoxyguanosine.
Data set [4] concerns the target T1, purine nucleoside phosphorylase (PNP-4) (Homo sapiens, UniProt P00491).
T1 construct: using human erythrocyte as the enzyme source; from tissue; host or cells: human erythrocyte
T1 sequence (P00491 1-289): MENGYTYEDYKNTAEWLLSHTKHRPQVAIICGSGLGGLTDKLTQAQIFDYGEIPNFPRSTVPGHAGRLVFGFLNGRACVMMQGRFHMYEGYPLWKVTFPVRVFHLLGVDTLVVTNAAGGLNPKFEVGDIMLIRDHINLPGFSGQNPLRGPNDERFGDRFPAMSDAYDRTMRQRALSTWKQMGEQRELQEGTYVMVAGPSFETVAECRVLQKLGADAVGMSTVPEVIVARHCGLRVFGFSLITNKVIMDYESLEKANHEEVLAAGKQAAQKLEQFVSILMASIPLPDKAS
The experiment in a line: PNP-4 enzyme assay, radiochemical, formation of [14C]hypoxanthine from [14C]inosine. It is filed as biochemical. The conditions noted are these: human erythrocyte enzyme. As for the experimental part:
In the purine nucleoside phosphorylase (PNP-4) enzyme assay, an IC50 is achieved at a dose of 1.0 micromoles on a selected compound of the present invention. PNP-4 activity for the compound of formula I is measured radiochemically by measuring the formation of [^14 --C]hypoxanthine from [^14 --C]inosine [Biomedicine, 33, 39 (1980)] using human erythrocyte as the enzyme source.

For the compound `Nc1nc2c(nc(N)n2[C@@H]2O[C@H](CO)[C@@H](O)[C@H]2O)c(=O)[nH]1` [8-Aminoguanosine], in data set [1], the “inhibiting rejection of skin graft” value is given as “efficacious for inhibiting rejection of skin graft in dogs”.
Turning to `Nc1nc2c(ccn2Cc2cccs2)c(=O)[nH]1` [Example 2, 2-Amino-7-(2-thienylmethyl)-4-pyrrolo[2,3-d]pyrimidone], the IC50 in data set [2] (T-cell, + 10 μM 2'-deoxyguanosine, read-out: HTBA-1 T-Cell + 10 μM 2'-d Gua, IC50) was 2.3 µM; in data set [4] it was 1 µM. For the same compound, in data set [2] (in the presence of 2'-deoxyguanosine, at a similar concentration range), the “selective cytotoxicity for T-cells” value is “selectively cytotoxic for T-cells”. Besides, the “toxicity to B-cell” value in data set [3] is listed as “nontoxic to B-cell”.

(Values after US4921858A, “7-deazaguanines as immunomodulators” (Warner-Lambert Company, priority 1989, dated 1990).)
